The record followed here is patent US20240293413A1, “COMPOUND AND METHOD FOR TREATING CHEMOTHERAPY-RELATED GASTROINTESTINAL SIDE EFFECTS” (ONQUALITY PHARMACEUTICALS CHINA LTD., priority 2021, published 2024).

Test [1] relates to diarrhea caused by the continuous administration of a chemotherapeutic agent in Balb/c mice. In words: Examples 444-469 (Table 9): oral CDK inhibitor, diarrhea caused by continuous administration of a chemotherapeutic agent. It is filed as in vivo. The source says:
Balb/c mice were fed for 1 week, and then divided into groups. The experiment was divided into a control group, a chemotherapeutic agent group, and a CDK inhibitor group, each of which comprised 10 mice, to perform the administration experiment, for which the administration dosage, mode, time and frequency were shown in Table 9. The control group: being intragastrically administered with the same solvent as that used in the CDK inhibitor group (the time was shown in Table 9), and then being injected/intragastrically administered with the same solvent as that used in the chemotherapeutic agent group (the administration mode was shown in Table 9): the chemotherapeutic agent group: being intragastrically administered with the same solvent as that used in the CDK inhibitor group (the time was shown in Table 9), and then being injected/intragastrically administered with the chemotherapeutic agent (the type, administration mode, dosage and duration time were shown in Table 9): the CDK inhibitor group: being intragastrically administered with the CDK inhibitor (the time was shown in Table 9), and then being administered with the chemotherapeutic agent (the type, administration mode, dosage and duration time were shown in Table 9).
The scoring of diarrhea can refer to the method of Akinobu Kurita (Cancer Chemother Pharmacol 2000: 46:211-20.), Grade 0: normal feces: Grade 1: mild diarrhea, the stools is slightly wet and soft: Grade 2: moderate diarrhea, loose stools and mild perianal contamination: Grade 3: severe diarrhea, watery stools and accompanied by severe perianal staining (see FIG. 1). It is regarded as effective remission when the diarrhea grading of mice in the CDK inhibitor group is reduced compared with the average diarrhea grading of mice in the chemotherapeutic agent group.
The diarrhea grading of mice was observed and recorded every day. At the end of the experiment, the number of mice in the CDK inhibitor group whose diarrhea grading was lower than that of mice in the chemotherapeutic agent group was recorded. Table 9 lists various animal experiment combinations of chemotherapeutic agents and CDK inhibitors, as well as the corresponding experimental results. (Relative remission rate %=the number of mice in the CDK inhibitor group whose diarrhea has been effectively relieved/the total number of mice in the CDK inhibitor group*100%. The establishment rate of diarrhea model in the chemotherapeutic agent group was 50%-80%, that is, about 5-8 of 10 mice developed diarrhea during the experiment, and there were cases of individual mice death or not developing diarrhea.)

Test [2] relates to Chemotherapeutic agent-caused constipation models of Balb/c mice. In words: Examples 272-342 (Table 5): oral CDK inhibitor, relief of constipation caused by a chemotherapeutic agent.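 Note: percent of treated mice relieved versus chemotherapy group by feces reduction rate.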 In kind it is in vivo. The method in brief:
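Feces reduction rate (%) = (control − treated)/control × 100%, based on the 3-hour feces amount recorded each day. Groups of 10 Balb/c mice received solvent, chemotherapeutic agent alone, or an oral CDK inhibitor before the chemotherapeutic agent.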

In the case of `CCN1CCN(Cc2ccc(Nc3ncc(F)c(-c4cc(F)c5nc(C)n(C(C)C)c5c4)n3)nc2)CC1` [Abemaciclib], the Relative remission rate is on record as 0% in test [1] (Example 457, Fluorouracil (5-Fu) oral administration 50 mg/kg once a day, for 14 days, CDK inhibitor oral 150 mg/kg once a day, for 14 days, 8 h before, cycle 14 days); 60% in test [2] (Example 295, Fluorouracil (5-Fu) intramuscular injection 200 mg/kg single, CDK inhibitor oral 100 mg/kg single, 22 h before, cycle 7 days); 50% in test [2] (Example 296, Oxaliplatin intraperitoneal injection 20 mg/kg single, CDK inhibitor oral 100 mg/kg single, 0.5 h before, cycle 8 days); 40% in test [2] (Example 297, Oxaliplatin intraperitoneal injection 20 mg/kg single, CDK inhibitor oral 100 mg/kg single, 4 h before, cycle 8 days); 60% in test [2] (Example 298, Oxaliplatin intraperitoneal injection 20 mg/kg single, CDK inhibitor oral 100 mg/kg single, 8 h before, cycle 8 days); 60% in test [2] (Example 299, Oxaliplatin intraperitoneal injection 20 mg/kg single, CDK inhibitor oral 100 mg/kg single, 12 h before, cycle 8 days). The Relative remission rate was 40% in test [2] (Example 300, Oxaliplatin intraperitoneal injection 20 mg/kg single, CDK inhibitor oral 100 mg/kg single, 24 h before, cycle 8 days); 0% in test [2] (Example 301, Oxaliplatin intraperitoneal injection 20 mg/kg single, CDK inhibitor oral 100 mg/kg single, 48 h before, cycle 8 days); 50% in test [2] (Example 312, Irinotecan (CPT-11) intravenous injection 260 mg/kg single, CDK inhibitor oral 150 mg/kg single, 14 h before, cycle 7 days); 60% in test [2] (Example 324, Gemcitabine and paclitaxel intraperitoneal injection 60 (G) 10 (P) mg/kg single, CDK inhibitor oral 150 mg/kg single, 24 h before, cycle 8 days); 30% in test [2] (Example 342, Methotrexate (MTX) intraperitoneal injection 300 mg/kg single, CDK inhibitor oral 150 mg/kg single, 8 h before, cycle 7 days).
As to `CC(=O)c1c(C)c2cnc(Nc3ccc(N4CCNCC4)cn3)nc2n(C2CCCC2)c1=O` [Palbociclib], the Relative remission rate in test [1] (Examples 444-447 (one value printed; 4 h, 6 h, 8 h, 12 h before), Fluorouracil (5-Fu) intraperitoneal injection 70 mg/kg once a day, for 3 days, CDK inhibitor oral 150 mg/kg once a day, for 3 days, cycle 10 days) is recorded as 70%; in test [1] (Examples 448-451 (one value printed; 4 h, 6 h, 8 h, 12 h before), Fluorouracil (5-Fu) intraperitoneal injection 70 mg/kg once a day, for 5 days, CDK inhibitor oral 150 mg/kg once a day, for 5 days, cycle 9 days), 60%; in test [1] (Examples 462-465 (one value given; 2 h, 4 h, 6 h, 8 h before), Capecitabine oral administration 1000 mg/kg (printed 100/0 wrapped) once a day, for 7 days, CDK inhibitor oral 150 mg/kg once a day, for 7 days, cycle 14 days), 0%; in test [1] (Examples 466-469 (one value given; 2 h, 4 h, 6 h, 8 h before), Capecitabine oral administration 1000 mg/kg (printed 100/0 wrapped) once a day, for 14 days, CDK inhibitor oral 150 mg/kg once a day, for 14 days, cycle 14 days) it was 10%; in test [2] (Example 293, Fluorouracil (5-Fu) oral administration 300 mg/kg single, CDK inhibitor oral 150 mg/kg single, 8 h before, cycle 7 days), 50%; in test [2] (Example 304, Irinotecan (CPT-11) intraperitoneal injection 260 mg/kg single, CDK inhibitor oral 150 mg/kg single, 0.5 h before, cycle 7 days) it was 40%. Further, the Relative remission rate is given as 60% in test [2] (Example 305, Irinotecan (CPT-11) intraperitoneal injection 260 mg/kg single, CDK inhibitor oral 150 mg/kg single, 4 h before, cycle 7 days); 80% in test [2] (Example 306, Irinotecan (CPT-11) intraperitoneal injection 260 mg/kg single, CDK inhibitor oral 150 mg/kg single, 8 h before, cycle 7 days); 70% in test [2] (Example 307, Irinotecan (CPT-11) intraperitoneal injection 260 mg/kg single, CDK inhibitor oral 150 mg/kg single, 12 h before, cycle 7 days); 30% in test [2] (Example 308, Irinotecan (CPT-11) intraperitoneal injection 260 mg/kg single, CDK inhibitor oral 150 mg/kg single, 24 h before, cycle 7 days); 0% in test [2] (Example 309, Irinotecan (CPT-11) intraperitoneal injection 260 mg/kg single, CDK inhibitor oral 150 mg/kg single, 48 h before, cycle 7 days); 50% in test [2] (Example 333, Cytarabine (Ara-C) intravenous injection 600 mg/kg single, CDK inhibitor oral 150 mg/kg single, 6 h before, cycle 8 days).
`CN(C)C(=O)c1cc2cnc(Nc3ccc(N4CCNCC4)cn3)nc2n1C1CCCC1` [Ribociclib]: the Relative remission rate is reported as 80% in test [1] (Example 456, Fluorouracil (5-Fu) intravenous injection 70 mg/kg once a day, for 3 days, CDK inhibitor oral 200 mg/kg once a day, for 3 days, 4 h before, cycle 8 days); 50% in test [2] (Example 294, Fluorouracil (5-Fu) intravenous injection 225 mg/kg single, CDK inhibitor oral 150 mg/kg single, 0.5 h before, cycle 7 days); 50% in test [2] (Example 302, Oxaliplatin intravenous injection 20 mg/kg single, CDK inhibitor oral 150 mg/kg single, 1 h before, cycle 8 days); 50% in test [2] (Example 310, Irinotecan (CPT-11) oral administration 300 mg/kg single, CDK inhibitor oral 100 mg/kg single, 20 h before, cycle 11 days); 50% in test [2] (Example 325, Gemcitabine and paclitaxel intravenous injection 60 (G) 10 (P) mg/kg single, CDK inhibitor oral 125 mg/kg single, 0.5 h before, cycle 8 days); 40% in test [2] (Example 336, Methotrexate (MTX) intravenous injection 300 mg/kg single, CDK inhibitor oral 125 mg/kg single, 0.5 h before, cycle 7 days). The Relative remission rate in test [2] (Example 337, Methotrexate (MTX) intravenous injection 300 mg/kg single, CDK inhibitor oral 125 mg/kg single, 4 h before, cycle 7 days) is recorded as 40%; in test [2] (Example 338, Methotrexate (MTX) intravenous injection 300 mg/kg single, CDK inhibitor oral 125 mg/kg single, 8 h before, cycle 7 days), 50%; in test [2] (Example 339, Methotrexate (MTX) intravenous injection 300 mg/kg single, CDK inhibitor oral 125 mg/kg single, 12 h before, cycle 7 days) it was 30%; in test [2] (Example 340, Methotrexate (MTX) intravenous injection 300 mg/kg single, CDK inhibitor oral 125 mg/kg single, 24 h before, cycle 7 days), 60%; in test [2] (Example 341, Methotrexate (MTX) intravenous injection 300 mg/kg single, CDK inhibitor oral 125 mg/kg single, 48 h before, cycle 7 days) it was 0%. The “relieving effect on diarrhea” value in test [1] (continuous administration of fluorouracil and capecitabine for 7 days or above) is given as “not significant”; in test [1] (continuous administration of fluorouracil for less than 7 days) it was “significant relieving effects”.
